Measurements reported in patent US20220235065A1 (Epizyme, Inc., priority 2016, published 2022).

Tests used:
EHMT1 = target: T1, EHMT1 (Homo sapiens, UniProt Q9H9B1); experiment: EHMT1 PEP (EHMT1 peptide enzyme assay); format: biochemical; conditions: peptide substrate enzyme assay
T1 sequence (Q9H9B1 1-1298): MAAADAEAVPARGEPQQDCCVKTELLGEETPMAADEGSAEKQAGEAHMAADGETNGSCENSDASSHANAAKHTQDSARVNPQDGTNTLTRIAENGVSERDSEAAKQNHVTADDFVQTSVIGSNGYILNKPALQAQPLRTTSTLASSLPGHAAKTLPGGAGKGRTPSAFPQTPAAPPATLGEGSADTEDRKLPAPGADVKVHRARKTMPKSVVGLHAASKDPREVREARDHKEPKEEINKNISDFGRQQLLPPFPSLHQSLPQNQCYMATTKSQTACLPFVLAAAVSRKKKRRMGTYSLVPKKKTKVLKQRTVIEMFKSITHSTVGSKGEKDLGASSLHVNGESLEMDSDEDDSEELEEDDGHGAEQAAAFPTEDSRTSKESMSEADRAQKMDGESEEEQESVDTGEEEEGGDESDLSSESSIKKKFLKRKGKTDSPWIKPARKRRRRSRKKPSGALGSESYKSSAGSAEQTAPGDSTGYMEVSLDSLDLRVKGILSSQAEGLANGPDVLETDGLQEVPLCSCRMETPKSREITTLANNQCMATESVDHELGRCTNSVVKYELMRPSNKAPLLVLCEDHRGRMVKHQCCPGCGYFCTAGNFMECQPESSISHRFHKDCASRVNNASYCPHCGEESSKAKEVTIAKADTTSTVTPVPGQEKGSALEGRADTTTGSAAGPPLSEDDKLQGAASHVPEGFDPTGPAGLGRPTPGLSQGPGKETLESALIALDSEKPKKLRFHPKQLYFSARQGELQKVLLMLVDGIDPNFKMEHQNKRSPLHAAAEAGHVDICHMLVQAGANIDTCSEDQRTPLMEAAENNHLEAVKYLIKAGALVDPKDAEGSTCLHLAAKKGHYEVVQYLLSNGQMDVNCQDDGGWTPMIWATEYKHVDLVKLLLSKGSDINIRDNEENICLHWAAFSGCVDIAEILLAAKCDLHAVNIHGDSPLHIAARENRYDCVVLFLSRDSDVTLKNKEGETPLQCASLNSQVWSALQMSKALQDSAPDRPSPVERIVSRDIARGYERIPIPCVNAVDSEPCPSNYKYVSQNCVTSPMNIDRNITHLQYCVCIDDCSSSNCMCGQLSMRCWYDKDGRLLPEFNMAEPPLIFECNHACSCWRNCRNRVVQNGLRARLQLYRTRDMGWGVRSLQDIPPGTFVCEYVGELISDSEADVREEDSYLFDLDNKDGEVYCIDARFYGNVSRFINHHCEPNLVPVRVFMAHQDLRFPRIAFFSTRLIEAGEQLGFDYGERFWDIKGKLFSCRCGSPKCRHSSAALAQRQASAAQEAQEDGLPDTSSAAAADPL

[1] = tested on: H3K9me2 in MDA-MB-231 cells; experiment: MDA-MB-231 H3K9me2 in-cell western assay; format: cell-based; conditions: Homo sapiens, read-out: EHMT2 ICW (IC50 μM)
Method in brief: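 MDA-MB-231 cells (3,000/well) exposed to compound for two consecutive 48 h periods at 37 °C, then fixed and stained for H3K9me2, with DRAQ5 as DNA stain and infrared read at 700/800 nm. Percent inhibition was set between DMSO and UNC0638 control wells. IC50 came from triplicate dose–response fits with a four-parameter model, top 100%, bottom 0%.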

Row | SMILES | IC50 (EHMT1) | IC50 [1]
1 | CNC(=O)c1cn(-c2cc(Nc3nc(C)cc(NC)n3)ccc2OC)nn1 [Compound 117] | > 10 µM | > 10 µM
2 | COc1ncc(Nc2nc(C)cc(NCC3COC3)n2)cc1-n1cc(CN(C)C)nn1 [Compound 86] | > 10 µM | > 10 µM
3 | CNc1cc(C)nc(Nc2ccc(OC)c(-n3cc(C)c(CNC(C)=O)n3)c2)n1 [Compound 94] | 1 to 10 µM | > 10 µM
4 | CNc1cc(C)nc(Nc2ccc(OC)c(-c3cc4cnccn4n3)c2)n1 [Compound 93] | 1 to 10 µM | > 10 µM
5 | CNc1cc(C)nc(Nc2ccc(OC)c(-n3cnc(CN4CC(F)C4)n3)c2)n1 [Compound 68] | > 10 µM | > 10 µM
6 | CNc1cc(C)nc(Nc2ccc(OC)c(-n3cc4c(n3)CCN(C)C4)c2)n1 [Compound 2] | < 0.1 µM | 0.1 to 1 µM
7 | CNC(=O)c1c(C)nn(-c2cc(Nc3nc(C)cc(NC)n3)ccc2OC)c1C [Compound 105] | > 10 µM | > 10 µM
8 | CNC(=O)CCNc1cc(C)nc(Nc2ccc(OC)c(-n3cc4c(n3)CCN(C)C4)c2)n1 [Compound 87] | < 0.1 µM | 0.1 to 1 µM
9 | CNc1cc(C)nc(Nc2ccc(OC)c(-c3cc4cnccc4[nH]3)c2)n1 [Compound 48] | < 0.1 µM | 1 to 10 µM
10 | CNc1cc(C)nc(Nc2ccc(OC)c(-n3ccc(CN4CCCC4)n3)c2)n1 [Compound 4, trifluoroacetic acid] | 1 to 10 µM | 1 to 10 µM
11 | CNc1cc(C)nc(Nc2ccc(OC)c(-n3ncc4ncccc43)c2)n1 [Compound 119] | 1 to 10 µM | > 10 µM
12 | CNc1cc(C)nc(Nc2ccc(OC)c(-n3cc(C4CCCN4C)nn3)c2)n1 (stereo not drawn) [Compound 136] | 0.1 to 1 µM | 0.1 to 1 µM
